Among the data in patent US20260042755A1, “GPR6 INVERSE AGONISTS” (MapLight Therapeutics, Inc., priority 2022, published 2026) are IC50 values, retold here.

One assay deals with T1, GPR6 (Homo sapiens, UniProt P46095).
T1 construct: expressed in transfected cells; host or cells: CHO cells
As to the kind of experiment: GPR6 antagonist functional cAMP assay (LANCE Ultra cAMP TR-FRET, CHO cells stably expressing GPR6). The format is cell-based. The settings on record: CHO cells stably expressing GPR6, cAMP assay (Example 24). Put shortly: (§1)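 Read-out was TR-FRET cAMP signal at 665 nm after 1 h at room temperature, following 45 min compound exposure at 37 °C. Assay buffer contained 0.1% BSA and 150 μM Ro 20-1724. Antagonist IC50s were fitted with a 4-parameter logistic against DMSO and reference controls.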
(In general: cAMP levels reflect the balance of adenylyl cyclase and phosphodiesterase activity.)

The target in a further assay is T2, GPR3 (Homo sapiens, UniProt P46089).
T2 construct: expressed in transfected cells; host or cells: CHO cells
Nature of the assay: GPR3 antagonist functional cAMP assay (LANCE Ultra cAMP TR-FRET, CHO cells stably expressing GPR3). The format is cell-based. The settings on record: CHO cells stably expressing GPR3, cAMP assay (Example 24). Put shortly:
as §1

SMILES strings stand for the structures.

T2 sequence (P46089 whole entry, species assumed): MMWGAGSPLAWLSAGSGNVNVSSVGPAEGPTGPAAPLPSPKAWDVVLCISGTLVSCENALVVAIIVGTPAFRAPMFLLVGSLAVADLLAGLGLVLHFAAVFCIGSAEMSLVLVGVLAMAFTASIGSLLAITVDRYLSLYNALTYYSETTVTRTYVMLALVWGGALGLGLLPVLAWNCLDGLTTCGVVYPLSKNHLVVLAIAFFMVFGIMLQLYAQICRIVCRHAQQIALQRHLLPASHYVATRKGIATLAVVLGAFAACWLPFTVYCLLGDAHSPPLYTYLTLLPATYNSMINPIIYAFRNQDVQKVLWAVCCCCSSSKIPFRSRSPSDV
T1 sequence (P46095 whole entry): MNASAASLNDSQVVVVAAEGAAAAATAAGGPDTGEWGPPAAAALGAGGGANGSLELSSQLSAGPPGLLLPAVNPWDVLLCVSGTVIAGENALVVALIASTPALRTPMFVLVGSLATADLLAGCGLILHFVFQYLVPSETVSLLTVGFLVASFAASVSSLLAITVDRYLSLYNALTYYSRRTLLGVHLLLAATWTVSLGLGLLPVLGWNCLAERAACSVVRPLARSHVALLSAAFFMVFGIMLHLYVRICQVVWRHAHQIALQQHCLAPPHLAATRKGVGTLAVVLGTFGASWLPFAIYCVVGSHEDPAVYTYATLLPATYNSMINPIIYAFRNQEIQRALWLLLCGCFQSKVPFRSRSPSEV

Consider `CCn1cc(-c2nc3c(nc2N2CCC(Oc4cc(Cl)ccc4Cl)CC2)CCN(C(=O)CO)C3)cn1` [Compound 403, 1-{2-[4-(2,5-dichlorophenoxy)piperidin-1-yl]-3-(1-ethyl-1H-pyrazol-4-yl)-5H,6H,7H,8H-pyrido[3,4-b]pyrazin-6-yl}-2-hydroxyethan-1-one], for which the IC50 at GPR6 is 100 to 1000 nM; against GPR3, 1000 to 30000 nM.
The corresponding values for `CC(=O)N1CCc2nc(N3CCC(Oc4ccc(F)cc4F)CC3)c(C3CCC(=O)CC3)nc2C1` [Compound 404, 4-(6-acetyl-2-(4-(2,4-difluorophenoxy)piperidin-1-yl)-5,6,7,8-tetrahydropyrido[3,4-b]pyrazin-3-yl)cyclohexan-1-one] are 1000 to 30000 nM and 1000 to 30000 nM.
With `[2H]C([2H])([2H])n1cc(-c2nc3c(nc2N2CCC(Oc4ccc(F)cc4F)CC2)CCN(C(C)=O)C3)cn1` [Compound 405, 1-{2-[4-(2,4-difluorophenoxy)piperidin-1-yl]-3-[1-(2H3)methyl-1H-pyrazol-4-yl]-5H,6H,7H,8H-pyrido[3,4-b]pyrazin-6-yl}ethan-1-one], the IC50 lay within 100 to 1000 nM against GPR6 and 1000 to 30000 nM against GPR3.
Regarding `[2H]C([2H])([2H])C([2H])([2H])n1cc(-c2nc3c(nc2N2CCC(Oc4ccc(F)cc4F)CC2)CCN(C(C)=O)C3)cn1` [Compound 406, 1-{2-[4-(2,4-difluorophenoxy)piperidin-1-yl]-3-{1-[(1,1,2,2,2-2H5)ethyl]-1H-pyrazol-4-yl}-5H,6H,7H,8H-pyrido[3,4-b]pyrazin-6-yl}ethan-1-one], the IC50 was under 100 nM at GPR6 and 1000 to 30000 nM on GPR3.
The corresponding values for `CC(C)(O)C(O)c1cc2nc(N3CCC(Oc4ccc(F)cc4F)CC3)c(-c3cnn(C(F)F)c3)nc2cn1` (stereo not shown) [Compound 407, 1-{3-[1-(difluoromethyl)-4-pyrazolyl]-2-[4-(2,4-difluorophenoxy)-1-piperidyl]-1,4,6-triaza-7-naphthyl}-2-methyl-1,2-propanediol] are 100 to 1000 nM and 1000 to 30000 nM.
The corresponding values for `Cn1cc(-c2nc3c(C#N)nccc3nc2N2CCC(Oc3ccc(F)cc3F)CC2)cn1` [Compound 409, 2-[4-(2,4-difluorophenoxy)piperidin-1-yl]-3-(1-methyl-1H-pyrazol-4-yl)pyrido[3,4-b]pyrazine-5-carbonitrile] are 100 to 1000 nM and 100 to 1000 nM.
The corresponding values for `COc1cc2nc(N3CCC(Oc4ccc(F)cc4F)CC3)c(-c3cnn(C)c3)nc2cn1` [Compound 410, 2-(4-(2,4-difluorophenoxy)piperidin-1-yl)-7-methoxy-3-(1-methyl-1H-pyrazol-4-yl)pyrido[3,4-b]pyrazine] are 1000 to 30000 nM and 1000 to 30000 nM.
On to `Cn1cc(-c2nc3cncc(Cl)c3nc2N2CCC(Oc3ccc(F)cc3F)CC2)cn1` [Compound 411, 1-[8-chloro-3-(1-methyl-1H-pyrazol-4-yl)pyrido[3,4-b]pyrazin-2-yl]-4-(2,4-difluorophenoxy)piperidine], for which the IC50 against GPR6 and at GPR3 was 1000 to 30000 nM in each case.
Regarding `Cn1cc(-c2nc3cnc(C4(O)COCC4O)cc3nc2N2CCC(Oc3ccc(F)cc3F)CC2)cn1` (stereo not shown) [Compound 412, 3-{2-[4-(2,4-difluorophenoxy)piperidin-1-yl]-3-(1-methyl-1H-pyrazol-4-yl)pyrido[3,4-b]pyrazin-7-yl}oxolane-3,4-diol], the IC50 against GPR6 and at GPR3 was 1000 to 30000 nM in each case.
For `Cn1cc(-c2nc3cnc(C(=O)C(C)(C)O)cc3nc2N2CCC(Oc3ccc(F)cc3F)CC2)cn1` [Compound 413, 1-(2-(4-(2,4-difluorophenoxy)piperidin-1-yl)-3-(1-methyl-1H-pyrazol-4-yl)pyrido[3,4-b]pyrazin-7-yl)-2-hydroxy-2-methylpropan-1-one], the IC50 against GPR6 was in the range of 100 to 1000 nM; against GPR3, 1000 to 30000 nM.
The corresponding values for `CNCC(O)c1cc2nc(N3CCC(Oc4ccc(F)cc4F)CC3)c(-c3cnn(C)c3)nc2cn1` (stereo not shown) [Compound 414, 1-{2-[4-(2,4-difluorophenoxy)piperidin-1-yl]-3-(1-methyl-1H-pyrazol-4-yl)pyrido[3,4-b]pyrazin-7-yl}-2-(methylamino)ethan-1-ol] are 100 to 1000 nM and 1000 to 30000 nM.
The corresponding values for `COc1ccc(OC2CCN(c3nc4cnncc4nc3-c3cnn(C)c3)CC2)c(F)c1` [Compound 417, 4-(2-fluoro-4-methoxyphenoxy)-1-[3-(1-methyl-1H-pyrazol-4-yl)pyrazino[2,3-d]pyridazin-2-yl]piperidine] are 100 to 1000 nM and 1000 to 30000 nM.
The corresponding values for `CC(=O)N1CCc2nc(N3CCC(Oc4ccccc4)C3)c(-c3cnn(C)c3)nc2C1` (stereo not shown) [Compound 418, 1-[3-(1-methyl-1H-pyrazol-4-yl)-2-(3-phenoxypyrrolidin-1-yl)-5H,6H,7H,8H-pyrido[3,4-b]pyrazin-6-yl]ethan-1-one] are 1000 to 30000 nM and 1000 to 30000 nM.
For `CC(=O)N1CCc2nc(N3CCC(Oc4ccccc4)CC3)c(-c3cnn(C)c3)nc2C1` [Compound 419, 1-[3-(1-methyl-1H-pyrazol-4-yl)-2-(4-phenoxypiperidin-1-yl)-5H,6H,7H,8H-pyrido[3,4-b]pyrazin-6-yl]ethan-1-one], the IC50 on GPR6 and on GPR3 was 1000 to 30000 nM each time.
As to `CC(=O)N1CCc2nc(N3CCC(Oc4ccccc4F)CC3)c(-c3cnn(C)c3)nc2C1` [Compound 420, 1-{2-[4-(2-fluorophenoxy)piperidin-1-yl]-3-(1-methyl-1H-pyrazol-4-yl)-5H,6H,7H,8H-pyrido[3,4-b]pyrazin-6-yl}ethan-1-one], the IC50 was 100 to 1000 nM on GPR6 and 1000 to 30000 nM on GPR3.
The corresponding values for `CC(=O)N1CCc2nc(N3CCC(Oc4ccc(F)cc4)CC3)c(-c3cnn(C)c3)nc2C1` [Compound 421, 1-{2-[4-(4-fluorophenoxy)piperidin-1-yl]-3-(1-methyl-1H-pyrazol-4-yl)-5H,6H,7H,8H-pyrido[3,4-b]pyrazin-6-yl}ethan-1-one] are 1000 to 30000 nM and 1000 to 30000 nM.
The corresponding values for `CC(=O)N1CCc2nc(N3CC=CCC3)c(-c3cnn(C)c3)nc2C1` [Compound 422, 1-[3-(1-methyl-1H-pyrazol-4-yl)-2-(1,2,3,6-tetrahydropyridin-1-yl)-5H,6H,7H,8H-pyrido[3,4-b]pyrazin-6-yl]ethan-1-one] are at least 30000 nM and 1000 to 30000 nM.
`CC(=O)N1CCc2nc(N3CCC(Oc4cccc(F)c4F)CC3)c(-c3cnn(C)c3)nc2C1` [Compound 423, 1-{2-[4-(2,3-difluorophenoxy)piperidin-1-yl]-3-(1-methyl-1H-pyrazol-4-yl)-5H,6H,7H,8H-pyrido[3,4-b]pyrazin-6-yl}ethan-1-one]: the IC50 at GPR6 and on GPR3 was 1000 to 30000 nM throughout.
As for `CC(=O)N1CCc2nc(N3CCC(Oc4cc(C#N)ccc4F)CC3)c(-c3cnn(C)c3)nc2C1` [Compound 424, 3-({1-[6-acetyl-3-(1-methyl-1H-pyrazol-4-yl)-5H,6H,7H,8H-pyrido[3,4-b]pyrazin-2-yl]piperidin-4-yl}oxy)-4-fluorobenzonitrile], the IC50 on GPR6 and at GPR3 was 1000 to 30000 nM each time.
In the case of `COc1ccc(OC2CCN(c3nc4c(nc3-c3cnn(C)c3)CN(C(C)=O)CC4)CC2)cc1` [Compound 425, 1-{2-[4-(4-methoxyphenoxy)piperidin-1-yl]-3-(1-methyl-1H-pyrazol-4-yl)-5H,6H,7H,8H-pyrido[3,4-b]pyrazin-6-yl}ethan-1-one], the IC50 at GPR6 and at GPR3 was 1000 to 30000 nM throughout.
As for `COc1ccc(OC2CCN(c3nc4c(nc3-c3cnn(C)c3)CN(C(C)=O)CC4)CC2)c(OC)c1` [Compound 426, 1-{2-[4-(2,4-dimethoxyphenoxy)piperidin-1-yl]-3-(1-methyl-1H-pyrazol-4-yl)-5H,6H,7H,8H-pyrido[3,4-b]pyrazin-6-yl}ethan-1-one], the IC50 against GPR6 and at GPR3 was 1000 to 30000 nM throughout.
Take `COc1cccc(OC2CCN(c3nc4c(nc3-c3cnn(C)c3)CN(C(C)=O)CC4)CC2)c1F` [Compound 427, 1-{2-[4-(2-fluoro-3-methoxyphenoxy)piperidin-1-yl]-3-(1-methyl-1H-pyrazol-4-yl)-5H,6H,7H,8H-pyrido[3,4-b]pyrazin-6-yl}ethan-1-one]: the IC50 against GPR6 and at GPR3 was 1000 to 30000 nM throughout.
In the case of `CC(=O)N1CCc2nc(N3CCC(Oc4c(F)cc(F)cc4F)CC3)c(-c3cnn(C)c3)nc2C1` [Compound 428, 1-[3-(1-methyl-1H-pyrazol-4-yl)-2-[4-(2,4,6-trifluorophenoxy)piperidin-1-yl]-5H,6H,7H,8H-pyrido[3,4-b]pyrazin-6-yl]ethan-1-one], the IC50 on GPR6 is 100 to 1000 nM; against GPR3 it was 1000 to 30000 nM.
On to `CC(=O)N1CCc2nc(N3CCC(Oc4ccc(Cl)cc4Cl)CC3)c(-c3cnn(C)c3)nc2C1` [Compound 429, 1-{2-[4-(2,4-dichlorophenoxy)piperidin-1-yl]-3-(1-methyl-1H-pyrazol-4-yl)-5H,6H,7H,8H-pyrido[3,4-b]pyrazin-6-yl}ethan-1-one], for which the IC50 against GPR6 fell in the range of 100 to 1000 nM; against GPR3, 1000 to 30000 nM.
The corresponding values for `CC(=O)N1CCc2nc(N3CCC(Oc4cc(Cl)ccc4Cl)CC3)c(-c3cnn(C)c3)nc2C1` [Compound 430, 1-{2-[4-(2,5-dichlorophenoxy)piperidin-1-yl]-3-(1-methyl-1H-pyrazol-4-yl)-5H,6H,7H,8H-pyrido[3,4-b]pyrazin-6-yl}ethan-1-one] are under 100 nM and 100 to 1000 nM.
The corresponding values for `CC(=O)N1CCc2nc(N3CCC(Oc4cc(F)cc(F)c4)CC3)c(-c3cnn(C)c3)nc2C1` [Compound 431, 1-{2-[4-(3,5-difluorophenoxy)piperidin-1-yl]-3-(1-methyl-1H-pyrazol-4-yl)-5H,6H,7H,8H-pyrido[3,4-b]pyrazin-6-yl}ethan-1-one] are 1000 to 30000 nM and 1000 to 30000 nM.

In general, IC50 refers to the midpoint of a concentration-inhibition curve. A lower IC50 goes with inhibition by little substance.
